We go through 9 compounds from patent US10131679B2, “Substituted dihydropyrrolopyrazole compound” (UBE INDUSTRIES, LTD., priority 2014, dated 2018).

In one test the target is T1, CDK7 (Homo sapiens, UniProt P50613).
T1 construct: purchased Carna Biosciences, Inc. 04-108
Nature of the test: CDK7 enzyme inhibition test. As to conditions: Ki=IC50/(1+S/Km); 33P bound to MBP, [γ-33P]ATP, 30° C. for 20 minutes; read-out: Ki value of CDK7 inhibitory activity. It counts as biochemical. The method, boiled down: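 Recombinant CDK7 with MBP substrate and [γ-33P]ATP (500 μM solution, diluted into the mix) in HEPES pH 7.4/DTT/Triton X-100/MgCl2, 20 min at 30 °C. TCA-precipitated 33P-MBP counted by scintillation; IC50 from inhibition, Ki = IC50/(1+S/Km).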

The subject of test [1] is Human keratinocytes (NHEK-Neo Pooled). Nature of the test: Human keratinocyte growth inhibition assay. The class given is cell-based. As to conditions: 48 h, culture for 2 days, Cell Counting Kit-8. How it is done: Human Keratinocyte Growth Inhibition Assay
The measurement of a human keratinocyte growth inhibitory effect was carried out by modifying the method of Schafer et al. (British Journal of Pharmacology, 159, 842 (2011)).
Human keratinocytes (NHEK-Neo Pooled, manufactured by Lonza Group AG, Cat. No. 00192906) were cultured in KGM-Gold Bullet Kit (manufactured by Lonza Group AG, Cat. No. 00192060) and inoculated at 2.0×10^3 cells/well to a 96-well plate. After overnight culture in a carbon dioxide incubator, a test compound dissolved in DMSO (final DMSO concentration: 0.1%) was added and left standing in a carbon dioxide incubator. After culture for 2 days, the absorbance thereof was measured by using Cell Counting Kit-8 (343-07623 manufactured by Dojindo Laboratories)).
The rate of inhibition of cell growth at each concentration was calculated from the test compound concentration and the absorbance of Cell Counting Kit-8, and the concentration of the test compound necessary for inhibiting 50% of cell growth (IC50 value) was calculated by using EXSUS (version 8.0.0 or version 8.0.1, manufactured by CAC Exicare Corp.).

For test [2], the system named is human large intestine cancer cell line (HCT-116). Nature of the test: Human large intestine cancer (HCT-116) cell growth inhibition test. The class given is cell-based. As to conditions: 72 h, HCT-116, culture for 3 days, sulforhodamine B absorbance. In outline:
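HCT-116 cells seeded at 1.0×10^3 cells/well in McCoy's 5a with 10% FBS, then exposed to compound (0.1% DMSO final) for 3 days. Growth measured by sulforhodamine B absorbance; IC50 derived from concentration-inhibition data.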

Test [3] has as its system IL-2 production in human peripheral blood mononuclear cell (PBMC). Nature of the test: Human PBMC CD3/CD28-induced IL-2 production inhibition test. It counts as cell-based. As to conditions: 48 h, CD3/CD28 stimulation, incubation for 2 days, ELISA. The source says:
Human Peripheral Blood Mononuclear Cell (PBMC) CD3/CD28-Induced IL-2 Production Inhibition Test
PBMC was separated and collected by using Ficoll-Paque (17-1440-02 manufactured by GE Healthcare Japan Corp.) from blood collected from healthy human adult in the presence of heparin. RPMI1640 medium (manufactured by GIBCO/Thermo Fisher Scientific, Inc., REF. 11875) containing 10% FBS (manufactured by GIBCO/Thermo Fisher Scientific, Inc. REF. 10082) and containing a test compound dissolved in DMSO and 2 μg/mL anti-hCD28 (manufactured by R&D Systems, Inc., Cat. No. MAB342) was added at 100 μL/well to T cell Activation Plate Anti-Human CD3 96-well plate (manufactured by Corning Inc., REF. 354725), and subsequently, a PBMC suspension adjusted such that the number of cells was 2×10^6 cells/mL was added at 100 μL/well (final DMSO concentration: 0.1%). A RPMI1640 medium containing 10% FBS and containing 0.1% DMSO and 2 μg/mL anti-hCD28 was similarly added to wells not supplemented with the test compound. After incubation for 2 days in a carbon dioxide incubator, the culture supernatant was collected. The collected culture supernatant was stored at −20° C. until IL-2 content measurement.
In the measurement of IL-2 content in the culture supernatant, a sandwich ELISA kit Quantikine Human IL-2 (manufactured by R&D Systems, Inc., Cat. No. S2050) was used. The IL-2 content of each sample was calculated from the calibration curve of Standard IL-2 included in the kit. When the amount of IL-2 produced by CD3/CD28 stimulation in the case of the addition of only DMSO was defined as 100%, the rate of inhibition of IL-2 production at each concentration of the test compound was calculated. A test compound concentration inhibiting 50% of IL-2 production was calculated as an IC50 value (nM) from the concentration of the added test compound and the rate of inhibition of IL-2 production by the test compound by using EXSUS (version 8.0.0 or version 8.0.1, manufactured by CAC Exicare Corp.).
Background: In an ELISA, binding on a coated surface is turned into a signal by an enzyme label.

For test [4], the system named is mouse imiquimod-induced psoriasis model. Nature of the test: Ear thickening suppression test using mouse imiquimod-induced psoriasis model. It counts as in vivo. The conditions noted are these: topical, 120 h, application of a 0.01% methanol solution for 4 days, thickness measured on day 5, BALB/c mice, read-out: rate of inhibition of increase in right auricle thickness. How it is done: Ear Thickening Suppression Test Using Mouse Imiquimod-Induced Psoriasis Model
An imiquimod-induced psoriasis model test was carried out by modifying the method of Leslie van der Fits et al. (J. Immunol. 182, 5836 (2009)). BALB/c mice were used (female, supplied by Charles River Laboratories Japan, Inc.) as laboratory animals. On the start day of the test, the thicknesses of the right auricles of the mice were measured with a thickness gauge (model SMD-565J manufactured by TECLOCK Corp.). A test compound solution or only a solvent was applied or orally administered, and after 60 minutes, 5 mg of imiquimod (Beselna Cream 5% manufactured by Mochida Pharmaceutical Co., Ltd.) was applied to the insides of the right auricles. The test compound solution or solvent administration and the imiquimod application were carried out for 4 days, and the thicknesses of the right auricles were measured again on day 5. When increase in the thicknesses of the right auricles of the solvent-administered group on day 5 was defined as 100%, the rate of inhibition of increase (%) at each dose of the test compound was calculated.

T1 sequence (P50613 whole entry): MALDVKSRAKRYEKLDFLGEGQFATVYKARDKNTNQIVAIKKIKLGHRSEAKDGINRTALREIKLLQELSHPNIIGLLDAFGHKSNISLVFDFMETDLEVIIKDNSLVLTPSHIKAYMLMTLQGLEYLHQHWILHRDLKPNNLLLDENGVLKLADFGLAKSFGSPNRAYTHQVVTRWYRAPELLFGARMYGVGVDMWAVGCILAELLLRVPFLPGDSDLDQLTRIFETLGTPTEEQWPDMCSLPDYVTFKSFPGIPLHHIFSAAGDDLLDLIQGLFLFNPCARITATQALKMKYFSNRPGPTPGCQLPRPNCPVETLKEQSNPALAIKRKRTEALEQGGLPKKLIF
T1 sequence (P51946 whole entry partner): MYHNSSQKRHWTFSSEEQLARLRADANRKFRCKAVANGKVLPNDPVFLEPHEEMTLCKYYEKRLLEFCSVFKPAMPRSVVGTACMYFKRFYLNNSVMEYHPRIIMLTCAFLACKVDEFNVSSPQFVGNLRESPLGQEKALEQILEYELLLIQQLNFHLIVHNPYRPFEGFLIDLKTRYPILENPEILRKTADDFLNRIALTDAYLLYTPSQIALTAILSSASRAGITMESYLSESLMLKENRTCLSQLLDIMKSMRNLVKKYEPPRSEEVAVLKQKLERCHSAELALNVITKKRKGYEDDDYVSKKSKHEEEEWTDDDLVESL
T1 sequence (P51948 whole entry partner): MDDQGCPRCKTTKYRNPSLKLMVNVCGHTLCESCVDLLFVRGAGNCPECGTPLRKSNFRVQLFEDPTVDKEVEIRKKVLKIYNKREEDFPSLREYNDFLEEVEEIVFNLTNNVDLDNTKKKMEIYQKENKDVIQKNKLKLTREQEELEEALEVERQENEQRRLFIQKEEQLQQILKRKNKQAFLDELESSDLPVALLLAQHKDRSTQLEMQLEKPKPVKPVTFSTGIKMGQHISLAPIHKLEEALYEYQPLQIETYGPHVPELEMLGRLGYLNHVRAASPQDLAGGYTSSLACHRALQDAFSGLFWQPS

The Ki is a dissociation constant, usually derived from enzyme kinetics or from competition with a known ligand. One may read the IC50 as the concentration that inhibits the measured activity by half. Read a low IC50 as greater potency. In the case of `CC1(C)c2[nH]nc(NC(=O)C3([Si](C)(C)C)CCC3)c2CN1C(=O)NC(C#CCO)c1ccccc1` (racemic) [IV-378, N-(4-Hydroxy-1-phenyl-2-butyn-1-yl)-6,6-dimethyl-3-[1-(trimethylsilyl)cyclobutanecarboxamido]-4,6-dihydropyrrolo[3,4-c]pyrazole-5(1H)-carboxamide], on CDK7, the Ki was not above 50 nM. Also, the IC50 in test [1] and in test [2] was not above 500 nM throughout.

In the case of `CC(C)(O)[C@@H](NC(=O)N1Cc2c(NC(=O)C3([Si](C)(C)C)CC3)n[nH]c2C1(C)C)c1ccccc1` [III-170, (S)—N-(2-Hydroxy-2-methyl-1-phenylpropyl)-6,6-dimethyl-3-[1-(trimethylsilyl)cyclopropanecarboxamido]-4,6-dihydropyrrolo[3,4-c]pyrazole-5(1H)-carboxamide], on CDK7, the Ki was not above 50 nM. The concentration for half-maximal inhibition (IC50) in test [1] was not above 500 nM; in test [2], not above 500 nM; in test [3] it was not above 50 nM.

Regarding `CC1(C)c2[nH]nc(NC(=O)C3([Si](C)(C)C)CC3)c2CN1C(=O)N[C@H](CCO)c1ccccc1` [III-226, (R)—N-(3-Hydroxy-1-phenylpropyl)-6,6-dimethyl-3-[1-(trimethylsilyl)cyclopropanecarboxamido]-4,6-dihydropyrrolo[3,4-c]pyrazole-5(1H)-carboxamide], the Ki at CDK7 was not above 50 nM. In addition, the figures for the IC50 in test [1], in test [2] and in test [3] were not above 500 nM, not above 500 nM and not above 50 nM, respectively.

`CO[C@@H](C(=O)N1Cc2c(NC(=O)C3([Si](C)(C)C)CC3)n[nH]c2C1(C)C)c1ccccc1` [III-1059, (R)—N-[5-(2-Methoxy-2-phenylacetyl)-6,6-dimethyl-1,4,5,6-tetrahydropyrrolo[3,4-c]pyrazol-3-yl]-1-(trimethylsilyl)cyclopropanecarboxamide]: on CDK7, the Ki was not above 50 nM. For the same compound, the IC50 in test [1] and in test [2] was not above 500 nM throughout. Besides, the inhibition in vivo at 0.01 % in test [4] was not below 50%.

On to `CC1(C)c2[nH]nc(NC(=O)C3([Si](C)(C)C)CCC3)c2CN1C(=O)N[C@H](COC(F)F)c1ccccc1` [IV-131, (S)—N-[2-(Difluoromethoxy)-1-phenylethyl]-6,6-dimethyl-3-[1-(trimethylsilyl)cyclobutanecarboxamido]-4,6-dihydropyrrolo[3,4-c]pyrazole-5(1H)-carboxamide], for which the IC50 in test [1] and in test [2] was not above 500 nM throughout.

Turning to `CC1(C)c2[nH]nc(NC(=O)C3([Si](C)(C)C)CCC3)c2CN1C(=O)NC(CO)c1ccccc1F` (stereo not shown) [IV-510, N-[1-(2-Fluorophenyl)-2-hydroxyethyl]-6,6-dimethyl-3-[1-(trimethylsilyl)cyclobutanecarboxamido]-4,6-dihydropyrrolo[3,4-c]pyrazole-5(1H)-carboxamide], at CDK7, the Ki was not above 50 nM. For the same compound, the IC50 was not above 500 nM in test [2] and not above 50 nM in test [3].

For the compound `CC1(C)c2[nH]nc(NC(=O)C3([Si](C)(C)C)CCC3)c2CN1C(=O)N[C@H](CO)c1cccc(F)c1` [IV-519, (S)—N-[1-(3-Fluorophenyl)-2-hydroxyethyl]-6,6-dimethyl-3-[1-(trimethylsilyl)cyclobutanecarboxamido]-4,6-dihydropyrrolo[3,4-c]pyrazole-5(1H)-carboxamide], the Ki on CDK7 is not above 50 nM. The values for the 50% inhibitory concentration (IC50) in test [1], in test [2] and in test [3] were not above 500 nM, not above 500 nM and not above 50 nM, respectively.

On to `CC1(C)c2[nH]nc(NC(=O)C3([Si](C)(C)C)CCC3)c2CN1C(=O)N[C@H](CO)c1ccc(F)cc1` [IV-527, (S)—N-[1-(4-Fluorophenyl)-2-hydroxyethyl]-6,6-dimethyl-3-[1-(trimethylsilyl)cyclobutanecarboxamido]-4,6-dihydropyrrolo[3,4-c]pyrazole-5(1H)-carboxamide], for which, on CDK7, the Ki is not above 50 nM. Further, the IC50 in test [1] was not above 500 nM; in test [2] it was not above 500 nM; in test [3] it was not above 50 nM.

For `CC(OC1CCCCC1)C(=O)N1Cc2c(NC(=O)C3([Si](C)(C)C)CCC3)n[nH]c2C1(C)C` (stereo not shown) [IV-1255, N-{5-[2-(Cyclohexyloxy)propanoyl]-6,6-dimethyl-1,4,5,6-tetrahydropyrrolo[3,4-c]pyrazol-3-yl}-1-(trimethylsilyl)cyclobutanecarboxamide], the inhibitory constant (Ki) on CDK7 was not above 50 nM. The IC50 was not above 500 nM in test [2] and not above 50 nM in test [3].
